In publication PMC7062083, “Metabolite identification, tissue distribution, excretion and preclinical pharmacokinetic studies of ET-26-HCl, a new analogue of etomidate” (Royal Society Open Science, 2020):
Several values for one entry are separate records, joined by “and”; a condition that tells them apart may be missing. Equal entries are not always repeated. Where two headings read alike, the source gives them in different places.

Tests used:
[1] = Stability in beagle plasma (LC-MS/MS); type: in vitro ADME
Experimental: (§1) Concentrations of ET-26-HCl and ET-26-acid in biological samples were determined by liquid chromatography–tandem mass spectrometry (LC–MS/MS) after deproteinization with methanol. The bioanalytical method for simultaneous quantification of ET-26-HCl and ET-26-acid in the different matrix was fully validated according to FDA guidelines (electronic supplementary material, figure S1 and tables S1 and S2) in our previous study. Briefly, a 100 µl sample (plasma, tissue homogenate, bile, urine and faeces suspension) were spiked with 20 µl of IS solution and vortexed for 30 s. The mixture was then processed for protein precipitation with 300 µl methanol, followed by centrifugation at 12 000 r.p.m. for 5 min. Supernatant was collected and analysed by LC–MS/MS system.

[2] = design: method as in earlier work; conditions: dog; ref results of the drug effect in the early stage of the cooperation laboratory; cited from earlier work
[3] = Metabolic stability in human liver microsomes; type: in vitro ADME
Experimental: (§2) Samples were analysed by LC–MS/MS as mentioned above.2.1 CLint, in vitro=0.693/t1/2/Cprotein, 2.2 CLint, in vivo=CLint, in vitro×Houston×LW/1000 2.3 andCLhep in vivo=HBF × fu ×CLint, in vivo/HBF + fu ×CLint, in vivo. Where Cprotein is microsomal protein concentration (mg ml^−1); Houston is Houston factor (45 mg of microsomal protein g^−1 liver); LW is liver weight (g) (per species); HBF is hepatic blood flow (ml min^−1) (per species); fu (two places) and later is unbound fraction (fu = 1 − %protein binding).

[4] = Metabolic stability in dog liver microsomes; type: in vitro ADME; conditions: for half-life: pH 7.4
Experimental: as §2

[5] = Metabolic stability in rat liver microsomes; type: in vitro ADME
Experimental: as §2

[6] = design: method as in earlier work; conditions: rat; ref results of the drug effect in the early stage of the cooperation laboratory; cited from earlier work
[7] = Metabolic stability in mouse liver microsomes; type: in vitro ADME
Experimental: as §2

[8] = Excretion (urine, faeces, bile) in Sprague Dawley rats; type: in vivo
Experimental: as §1
SD rats (4 male and 4 female) received 4.2 mg kg^−1 of ET-26-HCl intravenously and were housed in metabolic cages. Urine and faeces from the treated rats were collected between 0–6, 6–12, 12–24, 24–30, 30–36 and 36–48 h post-dosing. Urine volume and faeces weight were measured and recorded.
Bile fistulas of SD rats (four male and four female) were cannulated with polyethylene tube (Instech Laboratories, Inc., USA) and bile was collected at the following time-points: 0–3, 3–6, 6–9, 9–12 and 12–24 h post-dosing. The volume of the collected bile was measured and stored at −80°C until analysis.

[9] = Metabolic stability in monkey liver microsomes; type: in vitro ADME
Experimental: as §2

[10] = rats, i.v., cited from earlier work
[11] = Plasma protein binding, equilibrium dialysis, monkey plasma; type: in vitro ADME
Experimental: (§3) The PPB of ET-26-HCl in mouse, rat, beagle dog, monkey and human plasma was determined according to the equilibrium dialysis method. In brief, 1 ml of control plasma samples in dialysis bag was incubated in 10 ml of PBS containing ET-26-HCl at a final concentration of 2.21 × 10^2, 1.77 × 10^3 and 3.54 × 10^3 […] at 4°C with an equilibrium time of 9 h to reach the mass balance binding condition. A 100 µl aliquots of the PBS buffer and the plasma in the dialysis bag were transferred to 2 ml EP tubes and diluted to 995 µl with PBS and analysed on the LC–MS/MS system. The PPB (fppb) was calculated as follows: fppb=Din−Dout/Din×100% , where Din is the plasma drug concentration in the dialysis bag and Dout is the dialysate drug concentration.

[12] = Plasma protein binding, equilibrium dialysis, beagle dog plasma; type: in vitro ADME
Experimental: as §3

[13] = dog liver microsomes, Cprotein 0.33 mg ml^−1
[14] = i.v. ET-26-HCl 4.2 mg kg^−1, collected to 48 h

## COCCOC(=O)c1cncn1[C@H](C)c1ccccc1.Cl [ET-26-HCl, (R)-2-methoxyethyl1-(1-phenylethyl)-1H-imidazole-5-carboxylate hydrochloride]
[1]; 4◦C for 3 h, nominal 44.92 ng/mL
  Measured concentration (Mean ± SD): 48.79 ± 3.275 ng/mL
[1]; 4◦C for 3 h, nominal 3743 ng/mL
  Measured concentration (Mean ± SD): 3977 ± 294.1 ng/mL
[1]; Freeze and Thaw Cycle (3), nominal 44.92 ng/mL
  Measured concentration (Mean ± SD): 47.75 ± 3.427 ng/mL
[1]; Freeze and Thaw Cycle (3), nominal 3743 ng/mL
  Measured concentration (Mean ± SD): 3722 ± 240.3 ng/mL
[1]; Room temperature 3 h, nominal 44.92 ng/mL
  Measured concentration (Mean ± SD): 47.91 ± 4.952 ng/mL
[1]; Room temperature 3 h, nominal 3743 ng/mL
  Measured concentration (Mean ± SD): 3599 ± 136.1 ng/mL
[1]; –80 ◦C for 30 days, nominal 44.92 ng/mL
  Measured concentration (Mean ± SD): 44.67 ± 4.795 ng/mL
[1]; –80 ◦C for 30 days, nominal 3743 ng/mL
  Measured concentration (Mean ± SD): 3989 ± 229.1 ng/mL
[2]
  ED50: 1.045 mg/kg
[3]; human liver microsomes
  CLint, in vitro: 50.0 ml min g^−1 protein
  metabolic stability (in words): relatively stable
[3]; human liver microsomes, Cprotein 0.33 mg ml^−1
  CLint, in vitro: 50.0 ± 1.9 ml min^−1 g^−1 protein
[3]; human, from liver microsomes
  extrapolated CLhep in vivo: 1077 ± 11.8 mL/min
  extrapolated CLint, in vivo: 3823 ± 146.4 mL/min
[3]; pH 7.4, human liver microsomes, Cprotein 0.33 mg ml^−1
  half-life: 42 ± 1.7 min
[4]; beagle, dog liver microsomes, Cprotein 0.33 mg ml^−1
  half-life: < 5 min
[4]; dog liver microsomes
  CLint, in vitro: 466 ml min g^−1 protein
  metabolic stability (in words): not metabolically stable
[4]; [13]
  CLint, in vitro: 466 ± 12.3 ml min^−1 g^−1 protein
  half-life: 4.5 ± 0.1 min
[4]; dog, assumed body weight 10 kg (printed order)
  extrapolated hepatic clearance normalized to body weight: 4.58 L·h/kg
[4]; dog, from liver microsomes
  extrapolated CLhep in vivo: 296 mL/min and 296 ± 0.35 mL/min
  extrapolated CLint, in vivo: 6712 ± 117 mL/min
[5]; rat liver microsomes
  CLint, in vitro: 984 ml min g^−1 protein
  metabolic stability (in words): not metabolically stable
[5]; rat liver microsomes, Cprotein 0.33 mg ml^−1
  CLint, in vitro: 984 ± 68.6 ml min^−1 g^−1 protein
[5]; rat, assumed body weight 0.25 kg (printed order)
  extrapolated hepatic clearance normalized to body weight: 1.78 L·h/kg
[5]; rat, from liver microsomes
  extrapolated CLhep in vivo: 19.1 mL/min and 19.1 ± 0.1 mL/min
  extrapolated CLint, in vivo: 443 ± 30.9 mL/min
[6]
  ED50: 2.1 mg/kg
[7]; mouse liver microsomes
  CLint, in vitro: 629 ml min g^−1 protein
  metabolic stability (in words): not metabolically stable
[7]; mouse liver microsomes, Cprotein 0.33 mg ml^−1
  CLint, in vitro: 629 ± 25.7 ml min^−1 g^−1 protein
[7]; mouse, from liver microsomes
  extrapolated CLhep in vivo: 2.8 ± 0.0 mL/min
  extrapolated CLint, in vivo: 42.4 ± 1.7 mL/min
[7]; mouse, liver microsomes, pH 7.4, mouse liver microsomes, Cprotein 0.33 mg ml^−1
  half-life: < 5 min
[8]; i.v. ET-26-HCl 4.2 mg kg^−1, bile collected to 24 h
  accumulative excretion through bile: 0.619%
[8]; [14]
  accumulative excretion through faeces: 0.076%
  accumulative excretion through urine: 11.97%
[9]; monkey liver microsomes
  CLint, in vitro: 2216 ml min g^−1 protein
  metabolic stability (in words): not metabolically stable
  time to complete disappearance of ET-26-HCl: ≤ 15 min
[9]; monkey liver microsomes, Cprotein 0.33 mg ml^−1
  CLint, in vitro: 2216 ± 43.0 ml min^−1 g^−1 protein
[9]; monkey, from liver microsomes
  extrapolated CLhep in vivo: 168 ± 0.05 mL/min
[10]; 2.1 mg/kg
  AUC0-t: 28.47 ± 3.41 mg·min/L
  CL: 58 ± 11 mL/min/kg
  Cmax: 1820 ± 200 ng/mL
  Vd: 5.37 ± 0.72 L/kg
  t1/2: 65.4 ± 12.6 min
  λ: 0.66 ± 0.24 h⁻¹
[10]; 4.2 mg/kg
  AUC0-t: 41.70 ± 3.61 mg·min/L
  CL: 92 ± 8 mL/min/kg
  Cmax: 3310 ± 210 ng/mL
  Vd: 5.24 ± 1.33 L/kg
  t1/2: 39.6 ± 10.2 min
  λ: 1.20 ± 0.36 h⁻¹
[10]; 8.4 mg/kg
  AUC0-t: 110.92 ± 9.04 mg·min/L
  CL: 64 ± 5 mL/min/kg
  Cmax: 7010 ± 360 ng/mL
  Vd: 4.67 ± 0.99 L/kg
  t1/2: 51 ± 8.4 min
  λ: 0.78 ± 0.12 h⁻¹
[10]
  time until cleared after intravenous administration: ≤ 4 h
[11]; measured concentration 654 ng ml^−1
  fraction unbound at 9 h, 654 ng ml^−1: 0.387
[11]; measured concentration 2.62 × 10^3 ng ml^−1, read-out: protein binding (converted)
  fraction unbound at 9 h: 0.375 ± 0.0269
[11]; measured concentration 5.23 × 10^3 ng ml^−1, read-out: protein binding (converted)
  fraction unbound at 9 h: 0.357
[11]; overall over the three concentrations, read-out: plasma protein binding rate (converted)
  fraction unbound at 9 h: 0.373
[12]; beagle dog plasma, overall over the three concentrations, read-out: plasma protein binding rate (converted)
  fraction unbound at 9 h: 0.34
[12]; dog plasma, measured concentration 654 ng ml^−1
  fraction unbound at 9 h, 654 ng ml^−1: 0.345
[12]; dog plasma, measured concentration 2.62 × 10^3 ng ml^−1, read-out: protein binding (converted)
  fraction unbound at 9 h: 0.369
[12]; dog plasma, measured concentration 5.23 × 10^3 ng ml^−1, read-out: protein binding (converted)
  fraction unbound at 9 h: 0.306
